Read-outs that look alike come from different tables or passages of the source.
What was measured:
NRF2 protein [1] = test: Western blot analysis of NRF2 protein abundance and downstream targets in cell lines; assay type: cell-based; details: for NRF2 protein levels with MLN induced stabilization: H1299, 10 μM PYR or 1 μM 115 with 0.5 μM MLN, 24 hours
[2] = test system: NRF2 activity in H1299-NQO1-YFP cells; test: NRF2 activity reporter IC50 in H1299-NQO1-YFP cells vs NRF2 pathway activators (IncuCyte, YFP/mCherry); assay type: cell-based; details: for suppression of NRF2 activity (in words): IC50 experiments at the doses tested
Procedure: Readings were taken every 2 hours for at least 24 hours. […] Readings were also taken every 2 hours for 96 hours in and IncuCyte S3.
(§1) YFP total intensity (correlating to NRF2 activity) was normalized to NLS-mCherry (cell number) total intensity to give a ratio (YFP/mCherry). Ratios at one time point at least 24 hours post compounds were added were used. These numbers were then plotted in Graphpad Prism to calculate IC50s. […] From three biological replicates, percent confluence was used for proliferation assays to calculate IC50s, calculations performed using Graphpad Prism.

NRF2 protein [3] = test: Western blot analysis of NRF2 protein abundance and downstream targets in cell lines; assay type: cell-based; details: for NRF2 protein abundance: 24-48 hours, PYR 10 μM, analogs 1 μM (104 in HEK293T 10 μM), MTX and PEM 0.1 μM, CG 10 μM
Procedure: (§2) Western Blots: KYSE70, HEK293T cells were plated and 24 hours later treated with compounds (see figure legends for details). Either at 24 or 48 hours later, cells were scrapped in RIPA buffer (0.2% deoxycholate, 0.1% SDS, 1% NP40, 150 mM NaCl, 50 mM Tris pH 7.4, 2 mM EDTA) supplemented with protease and phosphatase inhibitors, cleared at 14000×g for 15 minutes at 4° C., and supernatants were quantified by BCA assay (Pierce, 23225). Protein samples (20 μg) were prepared with 1×LDS buffer with 100 mM DTT, ran on NuPAGE 4-12% Bis-tris gels, and transferred onto a […] nitrocellulose membrane (Thermo, 88018). All blots were blocked in 5% milk in TBST for 30 minutes. After incubation of the primary antibody overnight at 4° C. and washed three times with 1×TBST, blots were incubated with LI-COR secondary antibodies for 1-2 hours, washed in 1×TBST thrice, and then imaged via a LI-COR Odyssey instrument (Li-COR, Lincoln, Nebr.).

[4] = test system: NRF2 mRNA and NRF2 target gene mRNA; test: RT-qPCR of NRF2 mRNA and NRF2 downstream targets in KYSE70 cells; assay type: cell-based; details: 24 or 48 hours, PYR 10 μM, analogs 1 μM, MTX and PEM 0.1 μM
Procedure: (§3) qRT-PCR: Total RNA was extracted using PureLink RNA kit following the manufacturers protocol. Primers for qPCR were designed using the National Center for Biotechnology Information's (NCBI) Primer-BLAST platform. For primer sequences, see Table 2. RNA was quantified using a Nanodrop One (Thermo, Waltham, Mass.), and the reverse transcription reaction was performed using 2 μg of RNA with the iSCRIPT Clear kit with DNAse (Biorad, 170-8891). For the qRT-PCR, PowerUP SYBR Green (Thermo, A25741) was used, and data were analyzed on an AB QuantStudio 6 Flex Real Time PCR machine (Applied Biosystems, Foster City, Calif.). ΔCT values were normalized to housekeeping gene RPL13a and then normalized to DMSO for final ΔΔCT value.

KYSE70 cells [5] = test: Proliferation IC50 (percent confluence, IncuCyte) in KYSE70 cells; assay type: cell-based; details: Homo sapiens, read-out: proliferation IC50
Procedure: as §1, with “IncuCyte and IC50 calculations: […] […] Readings were taken every 2 hours for at least 24 hours. […] Readings were also taken every 2 hours for 96 hours in and IncuCyte S3. YFP total” for “YFP total”

AXIN2 and CK1γ1 mRNA = test: qRT-PCR of AXIN2 and CK1γ1 mRNA (not NRF2 target genes) in KYSE70 cells; assay type: cell-based; details: KYSE70, 48 hours; 1 μM 115, 0.1 μM MTX, 0.1 μM PEM
Excerpt: Single experiment shown. AXIN2 and CK1γ1 were done in same experiment, but separated for discussion. Error bars are SD and * represents p-value <0.05.
as §3

[6] = test system: mutant KEAP1 activation of NRF2 pathway in H1299-NQO1-YFP cells; test: H1299-NQO1-YFP reporter cells transfected with mutant KEAP1; assay type: cell-based; details: 10 μM PYR, mutant KEAP1 overexpressed
Procedure: Data is of 3 independent experiments, error bars are SD.
H1299-NQO1-YFP cells were transfected with WT, R320Q, R470C, or V115F FLAG-KEAP1 constructs using Lipofectamine 2000. […] Calculations are detailed below. This was performed in biological triplicate and error bars are SD.

H1299 cells = test: Proliferation IC50 (percent confluence, IncuCyte) in H1299 cells; assay type: cell-based; details: Homo sapiens, read-out: proliferation IC50
Procedure: as §1, with “IncuCyte and IC50 calculations: […] […] Readings were taken every 2 hours for at least 24 hours. […] Readings were also taken every 2 hours for 96 hours in and IncuCyte S3. YFP total” for “YFP total”

DHFR protein = biological target: T1, DHFR protein (Homo sapiens, UniProt P00374); test: Western blot for DHFR protein stabilization; assay type: cell-based; details: western blot at the doses used
T1 construct: endogenous in cells; host or cells: KYSE70, HEK293T, H1299, A549, OE21, PC-9
T1 sequence (P00374 1-187): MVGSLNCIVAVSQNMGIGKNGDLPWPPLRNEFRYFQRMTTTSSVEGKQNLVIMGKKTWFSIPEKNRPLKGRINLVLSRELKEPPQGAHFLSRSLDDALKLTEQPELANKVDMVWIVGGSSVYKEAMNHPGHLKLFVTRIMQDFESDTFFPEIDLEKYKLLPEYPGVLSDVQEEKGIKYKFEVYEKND
Procedure: as §2

human DHFR (hDHFR) = biological target: T2, human DHFR (hDHFR) (Homo sapiens, UniProt P00374); test: Human DHFR enzymatic assay; assay type: biochemical; details: in vitro enzymatic assay, hDHFR 3E-3 Units; read-out: hDHFR3E-3 Units IC50 μM + SEM
T2 construct: purchased
T2 sequence (P00374 1-187): T1 sequence (P00374 1-187)

[7] = Mouse study on analog 115: pharmacokinetic profile and clinical observations; details: for concentration at 7 h: female, CD-1, mouse, plasma
Procedure: Two tests were conducted, on for a single oral dose of 10 mg/kg and for an intravenous 2 mg/kg dose in female CD-1 mice (n=3 for each group).
Mouse study with Analog 115: All mouse work was performed by Paraza Pharma, Inc. All pertinent information and methods are listed in FIG. 17.

KYSE70 cells [8] = test: Metabolomics analysis of KYSE70 cells; assay type: cell-based; details: KYSE70, 48 hours; 10 μM PYR, 1 μM 115, 0.1 μM MTX
Procedure: After 48 hours, 1 ml of media was aliquoted into a clean Eppendorf and kept on ice, and the rest of the media was removed from these dishes. The cells were then washed in water twice and then scrapped in ice cold methanol.

[9] = Table 3, activator CDDO 100 nM, H1299-NQO1-YFP cells, read-out: CDDO 100 nM IC50 μM ± SEM
[10] = Table 3, activator SULF 2 μM, H1299-NQO1-YFP cells, read-out: SULF 2 μM IC50 μM ± SEM
[11] = Table 3, average over activators, H1299-NQO1-YFP cells, read-out: Avg IC50
[12] = read-out: PRL295 5 μM IC50 μM ± SEM, Table 3, activator PRL295 5 μM, H1299-NQO1-YFP cells
[13] = read-out: PRL295 5 μM IC50 AM ± SEM, Table 1, activator PRL295 5 μM, H1299-NQO1-YFP cells
[14] = Table 1 and text, average over activators CDDO, PRL295, SULF, H1299-NQO1-YFP cells, read-out: Avg IC50
[15] = Table 6 NRF2 inhibitors, read-out: Avg IC50

## Nc1nc(=O)c2c([nH]1)NCC(CNc1ccc(C(=O)N[C@@H](CCC(=O)O)C(=O)O)cc1)N2C=O (mixture of isomers) [FA, Folinic Acid]
NRF2 protein [1]; H1299, 10 ng/ml FA, 24 hr
  stabilization of NRF2 by FA alone: no stabilization of NRF2

## CN(Cc1cnc2nc(N)nc(N)c2n1)c1ccc(C(=O)N[C@@H](CCC(=O)O)C(=O)O)cc1 [MTX, Methotrexate, reference compound]
[2]; [9]
  IC50: 0.0008 µM
[2]; [10]
  IC50: 0.0358 ± 0.0031 µM
[2]; [11]
  IC50: 0.0202 µM
[2]; [12]
  IC50: 0.024 ± 0.0024 µM
NRF2 protein [3]; western blot
  NRF2 protein abundance: decreased
[4]
  NRF2 mRNA and NRF2 target gene mRNA: decreased
KYSE70 cells [5]; KYSE-70, 96 h
  IC50: 12.4 nM
AXIN2 and CK1γ1 mRNA
  AXIN2 and CK1γ1 mRNA: decreased AXIN2 and CK1γ1 mRNA

## Nc1nc2[nH]cc(CCc3ccc(C(=O)N[C@@H](CCC(=O)O)C(=O)O)cc3)c2c(=O)[nH]1 [PEM, reference compound]
[2]
  suppression of NRF2 activity (in words): only partial suppression of NRF2 activity
[2]; [9]
  IC50: 0.334 ± 0.03 µM
[2]; [10]
  IC50: 0.382 ± 0.0374 µM
[2]; [11]
  IC50: 0.276 µM
[2]; [12]
  IC50: 0.112 ± 0.0068 µM
NRF2 protein [3]; western blot
  NRF2 protein abundance: did not
[4]
  NRF2 mRNA and NRF2 target gene mRNA: did not
AXIN2 and CK1γ1 mRNA
  AXIN2 and CK1γ1 mRNA: decreased AXIN2 and CK1γ1 mRNA

## CCc1nc(N)nc(N)c1-c1ccc(Cl)cc1 [PYR, 5-(4-chlorophenyl)-6-ethylpyrimidine-2,4-diamine, reference compound]
[2]; read-out: Avg IC50 μM, Table 1 and text, average over activators CDDO, PRL295, SULF, H1299-NQO1-YFP cells
  IC50: 1.2 µM
[2]; read-out: Avg IC50 μM, Table 3, average over activators, H1299-NQO1-YFP cells
  IC50: 1.23 µM
[2]; read-out: Avg IC50 μM, Table 6 NRF2 inhibitors
  IC50: 1.23 µM
[2]; read-out: CDDO 0.1 μM IC50 μM ± SEM, Table 1, activator CDDO 0.1 μM, H1299-NQO1-YFP cells
  IC50: 1.25 ± 0.024 µM
[2]; read-out: CDDO 100 nM IC50 μM ± SEM, Table 3, activator CDDO 100 nM, H1299-NQO1-YFP cells
  IC50: 1.25 ± 0.024 µM
[2]; [12]
  IC50: 0.873 ± 0.032 µM
[2]; [13]
  IC50: 0.873 ± 0.032 µM
[2]; read-out: SULF 2 μM IC50 μM ± SEM, Table 1, activator SULF 2 μM, H1299-NQO1-YFP cells
  IC50: 1.59 ± 0.0448 µM
[2]; read-out: SULF 2 μM IC50 μM ± SEM, Table 3, activator SULF 2 μM, H1299-NQO1-YFP cells
  IC50: 1.59 ± 0.0448 µM
[6]
  mutant KEAP1 activation of the NRF2 pathway: repressed mutant KEAP1 activation of the pathway
NRF2 protein [3]; BORT 0.04 μM co-treatment, HEK293T, H1299
  NRF2 protein on co-treatment with Bortezomib: prevented PYR from decreasing NRF2
NRF2 protein [3]; western blot, PYR treatment
  expression of downstream NRF2 target proteins: decreased expression of downstream NRF2 target proteins
NRF2 protein [3]; western blot
  NRF2 protein abundance: decreases NRF2 protein abundance
[4]
  NRF2 mRNA and NRF2 target gene mRNA: abrogated NRF2 mRNA and NRF2 target gene mRNA decrease
KYSE70 cells [5]; KYSE-70, 96 h
  IC50: 1240 nM
H1299 cells; NCI-H1299, 96 h
  IC50: 3830 nM
DHFR protein
  DHFR protein stabilization: DHFR protein was stabilized
NRF2 protein [1]
  NRF2 protein levels with MLN induced stabilization: Neither PYR nor 115 can decrease NRF2 protein levels

## CCc1nc(N)ncc1-c1ccc(Cl)cc1 [WCDD101, 5-(4-chlorophenyl)-4-ethylpyrimidin-2-amine]
[2]
  suppression of NRF2 activity (in words): did not have any effect on NRF2 activity
[2]; [14]
  IC50: > 20 µM
[2]; [15]
  IC50: > 20 µM
DHFR protein
  DHFR protein stabilization: DHFR was not stabilized

## CCc1nc(N)nc(N)c1-c1cccc(C(F)(F)F)c1 [WCDD115, 6-ethyl-5-(3-(trifluoromethyl)phenyl)pyrimidine-2,4-diamine]
[2]; Table 1, activator CDDO 0.1 μM, H1299-NQO1-YFP cells, read-out: CDDO 0.1 μM IC50 μM ± SEM
  IC50: 0.052 ± 0.0001 µM
[2]; Table 1, activator SULF 2 μM, H1299-NQO1-YFP cells, read-out: SULF 2 μM IC50 μM ± SEM
  IC50: 0.057 ± 0.003 µM
[2]; [14]
  IC50: 0.05 µM
[2]; [15]
  IC50: 0.057 µM
[2]; [13]
  IC50: 0.06 ± 0.001 µM
[2]; relative to PYR
  potency in NRF2 suppression compared to PYR: 10 fold
[2]; unit inferred, read-out: IC50
  IC50: 0.05 µM
NRF2 protein [3]; western blot
  NRF2 protein abundance: decrease NRF2 protein abundance
KYSE70 cells [5]; KYSE-70, KYSE70, 96-hour time point, one or two experiments
  IC50: 31.9 nM
H1299 cells; NCI-H1299, H1299, 96-hour time point, initial experiment
  IC50: 145 nM
Human DHFR (hDHFR)
  IC50: 0.144 ± 0.0224 µM
[7]; iv, 2 mg/kg
  concentration at 7 h: 76.4 ng/mL
[7]; po, 10 mg/kg
  concentration at 7 h: ~450 ng/mL
[7]; oral 10 mg/kg or IV 2 mg/kg, 24 hours post dosing
  plasma level at 24 hours post dosing: unquantifiable
KYSE70 cells [8]
  reduction potential in the form of glutathione ratios: decreased
AXIN2 and CK1γ1 mRNA
  AXIN2 and CK1γ1 mRNA: some minimal effect on AXIN2
NRF2 protein [1]
  NRF2 protein levels with MLN induced stabilization: Neither PYR nor 115 can decrease NRF2 protein levels
